Measurements: patent US20220241333A1, “MODULATION OF T CELL CYTOTOXICITY AND RELATED THERAPY” (Cancer Research Technology Limited, priority 2019, published 2022)

Columns and labels:
Bcl6 = Bcl6 (Homo sapiens, UniProt P41182); conditions: compared with BI-3802; cited from earlier work
human CD8+ T cells = test: GZMB and BCL6 expression in human CD8+ T cells (PBMCs) treated with Bcl6 targeting drugs (flow cytometry); format: cell-based; conditions: 100 nM, 72 h, low dose αCD3 0.5 ug/ml; compared to control compound BI-5273
Method: (§1) Healthy donor human PBMCs were labelled with CellTrace Violet (ThermoFisher) according to manufacturer's protocol and cultured in RPMI media supplemented with 10% fetal bovine serum, 100 U/mL penicillin, 100 ug/ml streptomycin and 2 mM L-glutamine for 72 h. Cells were either left unstimulated or stimulated with αCD3 (clone OKT3) at a final concentration of 0.5 ug/ml. Cells were additionally treated with Bcl6 targeting drugs, or with a control compound (BI-5273), at a final concentration of 100 nM. Cells were stained for flow cytometry using a fixable viability dye (eBiosciences) and with directly conjugated antibodies against human CD3, CD4, CD8, FoxP3, CD25, GzmB, and Bcl6 using the FoxP3 Transcription factor staining Buffer set (ThermoFisher) according to the manufacturer's instructions.

[1] = tested on: human CD4+ effector T cells; test: GZMB expression in human CD4+ effector T cells (PBMCs) treated with Bcl6 targeting drugs (flow cytometry); format: cell-based; conditions: 100 nM, 72 h, low dose αCD3 0.5 ug/ml
Method: as §1

human naive CD4+ T cells = test: GzmB expression in aCD3/aCD28-stimulated human naive CD4+ T cells; format: cell-based; conditions: blockade of IL-2R signalling with anti-human CD25
Method: FACS-purified human CD4^+ T cells were cultured in RPMI complete medium with irradiated autologous feeders cells in 1:1 ratio for 96 h, stimulated with aCD3 (OKT3) and aCD28 (9.3; BioXcell). To some wells anti-CD25 antibody (Basiliximab; Novartis) was added 48 hours post aCD3/CD28 stimulation.

CD4+ effector T cells = test: GZMB expression in mouse CD4+ effector T cells treated with Bcl6 degrader (flow cytometry); format: cell-based; conditions: 10 nM, 72 h, low dose αCD3+αCD28 0.1 ug/ml
Method: Spleens and lymph nodes were taken from C57BL/6J mice, and processed through a 70 μm mesh using PBS, followed by red blood cell lysis using Red Blood cell lysis buffer (Sigma) according to the manufacturer's protocol. Lymphocytes were labelled with CellTrace Violet (ThermoFisher) according to manufacturer's protocol and cultured in RPMI media supplemented with 10% fetal bovine serum, 100 U/mL penicillin, 100 ug/ml streptomycin and 2 mM L-glutamine for 72 h. Cells were either left unstimulated or stimulated with αCD3 (clone 2C11, BioXcell) and αCD28 (clone 37.51, BioXcell) at 0.1 ug/ml. Cells were additionally treated with a Bcl6 degrader (BI-3802) or with a control compound (BI-5273), at a final concentration of 10 nM. […] Cells were stained for flow cytometry using a fixable viability dye (eBiosciences) and with directly conjugated antibodies against CD3, CD4, CD8, FoxP3, CD25, GzmB, PD-1 and Bcl6 using the FoxP3 Transcription factor staining Buffer set (ThermoFisher) according to the manufacturer's instructions.

[2] = tested on: CD4+ Trp1 and OT-II T cells; test: GzmB upregulation in CD4+ Trp1 and OT-II TCR Tg T cells stimulated in vitro with antigen and cytokines; format: cell-based, mouse; conditions: low antigen concentration (0.01 μM OVA peptide), comparison of CGAMMA chain cytokines
Method: Purified CD4+ T cells (CD4 T cells beads, Miltenyi or CD4 Dyna Beads, Invitrogen) were cultured in RPMI complete medium (as above) together with DC and irradiated feeder cells (40 Gy) in 2:1:1 ratio for 72 or 96 h. Polyclonal CD4+ T cells were stimulated with anti-CD3 (2C11) and anti-CD28 (37.51) (BioXcell); OT-II cells with OVA peptide (Pepscan) and Trp-1 cells with Trp-1 peptide (Pepscan) at concentration indicated in figure legend. Mouse CD4 T cells were cultured with aCD25 (PC61) and aIL-2 (JES6-1A12, BioXcell).
We therefore evaluated the potential contribution of CGAMMA receptor cytokines to the upregulation of GzmB in tumour-reactive CD4^+ T cells.

[3] = compared to control compound BI-5273
[4] = relative to control compound BI-5273

Molecule: C[C@@H]1C[C@H](C)CN(c2ncc(Cl)c(Nc3ccc4c(c3)cc(OC(C)(C)C(=O)O)c(=O)n4C)n2)C1 [BI-5273]
- Bcl6 inhibitor activity (Bcl6): significantly reduced Bcl6 inhibitor activity

Molecule: C[C@@H]1CN(c2ncc(Cl)c(Nc3ccc4c(c3)n(CCC(C)(C)O)c(=O)n4C)n2)C[C@H](C)C1(F)F [CCT369260, 5-((5-chloro-2-((3R,5S)-4,4-difluoro-3,5-dimethylpiperidin-1-yl)pyrimidin-4-yl)amino)-3-(3-hydroxy-3-methylbutyl)-1-methyl-1,3-dihydro-2H-benzo[d]imidazol-2-one]
- Percentage of human CD8+ T cells that express BCL6 (human CD8+ T cells): significantly lower percentage
- Percentage of human CD8+ T cells that express GZMB (human CD8+ T cells): A decrease, although not statistically significant
- Mean fluorescence intensity (MFI) of GZMB in human CD4+ effector T cells [1, 3]: increased GZMB expression
- Percentage of human CD4+ effector T cells that express GZMB [1, 4]: significantly greater percentage

Molecule: Basiliximab
- GzmB expression (human naive CD4+ T cells): significantly reduced GzmB expression to levels below those of the untreated control sample

Molecule: CNC(=O)COc1cc2cc(Nc3nc(N4C[C@H](C)C[C@H](C)C4)ncc3Cl)ccc2n(C)c1=O [BI-3802]
- Mean fluorescence intensity of GZMB in CD4+ effector T cells (CD4+ effector T cells; [3]): increased GZMB expression
- Percentage of CD4+ effector T cells that express GZMB (CD4+ effector T cells; [4]): significantly greater percentage

B1: IL-7: cytokine (Peprotech) added to T cell cultures (protein, UniProt P13232 26-177, looked up)
Interleukin-7: DCDIEGKDGKQYESVLMVSIDQLLDSMKEIGSNCLNNEFNFFKRHICDANKEGMFLFRAARKLRQFLKMNSTGDFDLHLLKVSEGTTILLNCTGQVKGRKPAALGEAQPTKSLEENKSLKEQKKLNDLCFLKRLLQEIKTCWNKILMGTKEH
- Induction of GzmB [2]: at a much lower level
